Measured values published in patent US20240400555A1 (Initial Therapeutics, Inc., priority 2023, published 2024).

Tested on: MV-4-11 cells
Experiment: Cell Viability Assay in MV-4-11 Cells
Format: cell-based
Conditions: Homo sapiens, MV4-11, 72 h, MV-4-11 cells, 72 h, Cell-Titer Glo; read-out: IC50
Outline: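 MV-4-11 cells at 7,000/well in IMDM with 10% FBS, exposed to compound for 72 h. Viability by CellTiter-Glo luminescence, normalized to DMSO as 100%, fitted with a four-parameter curve.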

SMILES | IC50
O=C(c1ccc(-n2nnc3cccnc32)cc1F)N(c1nccc2sc(-c3ccn(CCO)n3)cc12)[C@@H]1CCCNC1 [Example 418, (R)-4-(3H-[1,2,3]triazolo[4,5-b]pyridin-3-yl)-2-fluoro-N-(2-(1-(2-hydroxyethyl)-1H-pyrazol-3-yl)thieno[3,2-c]pyridin-4-yl)-N-(piperidin-3-yl)benzamide] | 360 nM
COCc1cn(-c2ccc(C(=O)N(c3nccc4cc(Cl)cc(C)c34)[C@@H]3CCCNC3)nc2)nn1 [Example 632, (R)—N-(6-chloro-8-methylisoquinolin-1-yl)-5-(4-(methoxymethyl)-1H-1,2,3-triazol-1-yl)-N-(piperidin-3-yl)picolinamide] | 190 nM
Cn1cc(-c2ccc(C(=O)N(c3nccc4sc(-c5ccccn5)cc34)[C@@H]3CCCNC3)c(F)c2)nn1 [Example 507, 2-fluoro-4-(1-methyltriazol-4-yl)-N-[(3R)-3-piperidyl]-N-[2-(2-pyridyl)thieno [3,2-c]pyridin-4-yl] benzamide] | 610 nM
Cn1cc(-c2ccc(C(=O)N(c3nccc4sc(/C=C\CO)cc34)[C@@H]3CCCNC3)c(F)c2)nn1 [Example 504, (R,Z)-2-fluoro-N-(2-(3-hydroxyprop-1-en-1-yl)thieno[3,2-c]pyridin-4-yl)-4-(1-methyl-1H-1,2,3-triazol-4-yl)-N-(piperidin-3-yl)benzamide] | 810 nM
CC(O)c1cccc(-c2cc3c(N(C(=O)c4ccc(-n5nnc6cccnc65)cc4F)[C@@H]4CCCNC4)nccc3s2)c1 (stereo partly drawn) [Example 601, 4-(3H-[1,2,3]triazolo[4,5-b]pyridin-3-yl)-2-fluoro-N-(2-(3-(1-hydroxyethyl)phenyl)thieno[3,2-c]pyridin-4-yl)-N—((R)-piperidin-3-yl)benzamide] | 200 nM
O=C(c1ccc(-n2nnc3cccnc32)cc1F)N(c1nccc2cc(-c3ccccn3)ccc12)[C@@H]1CCCNC1 [Example 556, (R)-4-(3H-[1,2,3]triazolo[4,5-b]pyridin-3-yl)-2-fluoro-N-(piperidin-3-yl)-N-(6-(pyridin-2-yl)isoquinolin-1-yl) benzamide] | 650 nM
Cc1cc(-c2cc3c(N(C(=O)c4ccc(-n5nnc6cccnc65)cc4F)[C@@H]4CCCNC4)nccc3s2)cc(C)n1 [Example 571, N-[2-(2,6-dimethyl-4-pyridyl)thieno[3,2-c]pyridin-4-yl]-2-fluoro-N-[(3R)-3-piperidyl]-4-(triazolo[4,5-b]pyridin-3-yl)benzamide] | 63 nM
COc1ccc(-c2cc3c(N(C(=O)c4ccc(-n5nnc6cccnc65)cc4F)[C@@H]4CCCNC4)nccc3s2)cc1 [Example 378, 2-fluoro-N-[2-(4-methoxyphenyl)thieno[3,2-c]pyridin-4-yl]-N-[(3R)-3-piperidyl]-4-(triazolo[4,5-b]pyridin-3-yl)benzamide] | 190 nM
O=C(c1ccc(-n2nnc3cccnc32)cc1F)N(c1nccc2sc(-c3ccncn3)cc12)[C@@H]1CCCNC1 [Example 456, 2-fluoro-N-[(3R)-3-piperidyl]-N-(2-pyrimidin-4-ylthieno[3,2-c]pyridin-4-yl)-4-(triazolo[4,5-b]pyridin-3-yl)benzamide] | 380 nM
Cn1cc(-c2ccc(C(=O)N(c3nccc4cc(-c5cnn(CCO)c5)ccc34)[C@@H]3CCCNC3)c(F)c2)nn1 [Example 492, (R)-2-fluoro-N-(6-(1-(2-hydroxyethyl)-1H-pyrazol-4-yl)isoquinolin-1-yl)-4-(1-methyl-1H-1,2,3-triazol-4-yl)-N-(piperidin-3-yl)benzamide] | 870 nM
Cc1cccc2ccnc(N(C(=O)c3cccc(C#CCCCO)c3)[C@@H]3CCCNC3)c12 [Example 513, (R)-3-(5-hydroxypent-1-yn-1-yl)-N-(8-methylisoquinolin-1-yl)-N-(piperidin-3-yl) benzamide] | 540 nM
Cn1cc(-c2ccc(C(=O)N(c3nccc4cc(F)ccc34)[C@@H]3CCCNC3)c(F)c2)nn1 [Example 469, (R)-2-fluoro-N-(6-fluoroisoquinolin-1-yl)-4-(1-methyl-1H-1,2,3-triazol-4-yl)-N-(piperidin-3-yl)benzamide] | 180 nM
Cc1nnc(-c2ccc3c(N(C(=O)c4ccc(-n5nnc6cccnc65)cc4F)[C@@H]4CCCNC4)nccc3c2)s1 [Example 576, (R)-4-(3H-[1,2,3]triazolo[4,5-b]pyridin-3-yl)-2-fluoro-N-(6-(5-methyl-1,3,4-thiadiazol-2-yl)isoquinolin-1-yl)-N-(piperidin-3-yl)benzamide] | 430 nM

The next lines start with the values.

IC50 | SMILES
210 nM | Cc1cccc2ccnc(N(C(=O)c3ccc(Nc4nccc(Nc5ccncc5)n4)cc3F)[C@@H]3CCCNC3)c12 [Example 683, (R)-2-fluoro-N-(8-methylisoquinolin-1-yl)-N-(piperidin-3-yl)-4-((4-(pyridin-4-ylamino)pyrimidin-2-yl)amino)benzamide]
110 nM | Cc1cn(-c2ccc(C(=O)N(c3nccc4cc(Cl)cc(C)c34)[C@@H]3CCCNC3)c(F)c2)nn1 [Example 691, (R)—N-(6-chloro-8-methylisoquinolin-1-yl)-2-fluoro-4-(4-methyl-1H-1,2,3-triazol-1-yl)-N-(piperidin-3-yl)benzamide]
44 nM | [2H]C([2H])([2H])n1cc(-c2ccc(C(=O)N(c3nccc4cc(F)cc(C)c34)[C@@H]3CCCNC3)c(F)c2)nn1 [Example 891, 2-fluoro-N-(6-fluoro-8-methyl-1-isoquinolyl)-N-[(3R)-3-piperidyl]-4-[1-(trideuteriomethyl)triazol-4-yl]benzamide]
130 nM | [2H]C([2H])([2H])c1nnc(-c2ccc(C(=O)N(c3nccc4cc(F)cc(C)c34)[C@@H]3CCCNC3)c(F)c2)s1 [Example 767, 2-fluoro-N-(6-fluoro-8-methyl-1-isoquinolyl)-N-[(3R)-3-piperidyl]-4-[5-(trideuteriomethyl)-1,3,4-thiadiazol-2-yl]benzamide]
49 nM | Cc1ncc(-c2cc(C)c3c(N(C(=O)c4ccc(-c5nnc(C)s5)cc4F)[C@@H]4CCCNC4)nccc3c2)s1 [Example 732, 2-fluoro-N-[8-methyl-6-(2-methylthiazol-5-yl)-1-isoquinolyl]-4-(5-methyl-1,3,4-thiadiazol-2-yl)-N-[(3R)-3-piperidyl]benzamide]
45 nM | COCCc1nnc(-c2ccc(C(=O)N(c3nccc4cc(C)cc(C)c34)[C@@H]3CCCNC3)cn2)s1 [Example 903, N-(6,8-dimethyl-1-isoquinolyl)-6-[5-(2-methoxyethyl)-1,3,4-thiadiazol-2-yl]-N-[(3R)-3-piperidyl]pyridine-3-carboxamide]
610 nM | Cc1cc(C2CCN(C(=O)N(c3nccc4cc(F)cc(C)c34)[C@@H]3CCCNC3)CC2)on1 [Example 658, (R)—N-(6-fluoro-8-methylisoquinolin-1-yl)-4-(3-methylisoxazol-5-yl)-N-(piperidin-3-yl)piperidine-1-carboxamide]
88 nM | Cc1cccc2ccnc(N(C(=O)c3ccc(Nc4nccc(N5CCOC[C@H]5CO)n4)cc3F)[C@@H]3CCCNC3)c12 [Example 942, 2-fluoro-4-((4-((R)-3-(hydroxymethyl)morpholino)pyrimidin-2-yl)amino)-N-(8-methylisoquinolin-1-yl)-N—((R)-piperidin-3-yl)benzamide]
460 nM | C=C(C)c1csc2ccnc(N(C(=O)c3ccc(-c4nnc(C)s4)cc3F)[C@@H]3CCCNC3)c12 [Example 651, 2-fluoro-N-(3-isopropenylthieno[3,2-c]686yridine-4-yl)-4-(5-methyl-1,3,4-thiadiazol-2-yl)-N-[(3R)-3-piperidyl]benzamide]
130 nM | [2H]C([2H])([2H])c1nnc(-c2ccc(C(=O)N(c3nccc4cc(C)cc(C)c34)[C@@H]3CCCNC3)cc2)s1 [Example 907, N-(6,8-dimethyl-1-isoquinolyl)-N-[(3R)-3-piperidyl]-4-[5-(trideuteriomethyl)-1,3,4-thiadiazol-2-yl]benzamide]
150 nM | Cc1cc(C)c2c(N(C(=O)c3ccc(-c4nnc(C)s4)cn3)[C@@H]3CCCNC3)nccc2c1 [Example 701, (R)—N-(6,8-dimethylisoquinolin-1-yl)-5-(5-methyl-1,3,4-thiadiazol-2-yl)-N-(piperidin-3-yl)picolinamide]
61 nM | COCc1c(-c2ccc(C(=O)N(c3nccc4scc(C)c34)[C@@H]3CCCNC3)c(F)c2)nnn1C [Example 851, 2-fluoro-4-[5-(methoxymethyl)-1-methyl-triazol-4-yl]-N-(3-methylthieno[3,2-c]pyridin-4-yl)-N-[(3R)-3-piperidyl]benzamide]
400 nM | C=C(C)c1cccnc1N(C(=O)c1ccc(Nc2ncccn2)cc1F)[C@@H]1CCCNC1 [Example 930, (R)-2-fluoro-N-(piperidin-3-yl)-N-(3-(prop-1-en-2-yl)pyridin-2-yl)-4-(pyrimidin-2-ylamino)benzamide]
> 6300 nM | Cc1cccc2ccnc(N(C(=O)c3ccc(N4CCOC(C)(C)C4)cc3F)[C@@H]3CCCNC3)c12 [Example 644, 4-(2,2-dimethylmorpholin-4-yl)-2-fluoro-N-(8-methyl-1-isoquinolyl)-N-[(3R)-3-piperidyl] benzamide]
1000 nM | Cn1cc(-c2ccc(C(=O)N(c3nccc4cc(Cc5cccnc5)ccc34)[C@@H]3CCCNC3)c(F)c2)nn1 [Example 828, (R)-2-fluoro-4-(1-methyl-1H-1,2,3-triazol-4-yl)-N-(piperidin-3-yl)-N-(6-(pyridin-3-ylmethyl)isoquinolin-1-yl)benzamide]
260 nM | Cc1nnc(-c2ccc(C(=O)N(c3nccc4c(Cl)ccc(C)c34)[C@@H]3CCCNC3)cc2)s1 [Example 856, N-(5-chloro-8-methyl-1-isoquinolyl)-4-(5-methyl-1,3,4-thiadiazol-2-yl)-N-[(3R)-3-piperidyl]benzamide]
46 nM | Cc1cccc2ccnc(N(C(=O)c3ccc(Nc4nccc(NCc5cnn(C)c5)n4)cc3F)[C@@H]3CCCNC3)c12 [Example 694, (R)-2-fluoro-4-((4-(((1-methyl-1H-pyrazol-4-yl)methyl)amino)pyrimidin-2-yl)amino)-N-(8-methylisoquinolin-1-yl)-N-(piperidin-3-yl)benzamide]
